Where a name gives a salt, the structure may show the parent alone.
Key:
Conditions in all cases: exposure time: 72 h
[1] = tested on: E13 (patient-derived glioblastoma stem cells of classical subtype); assay: phenotypic distance (Euclidean, principal components) from DMSO controls (arbitrary units); higher = stronger morphological change
[2] = tested on: E21 (patient-derived glioblastoma stem cells of mesenchymal subtype); assay: as above
[3] = tested on: E28 (patient-derived glioblastoma stem cells of classical subtype); assay: as above
[4] = tested on: E31 (patient-derived glioblastoma stem cells of proneural subtype); assay: as above
[5] = tested on: E34 (patient-derived glioblastoma stem cells of proneural subtype); assay: as above
[6] = tested on: FT3469 (normal neural stem cell line); assay: as above
[7] = tested on: E57 (patient-derived glioblastoma stem cells of mesenchymal subtype); assay: as above
[8] = tested on: E13; assay: surviving fraction (nuclei count normalised to DMSO); higher = more cells surviving (less toxic)
[9] = tested on: E21; assay: as above
[10] = tested on: E28; assay: as above
[11] = tested on: E31; assay: as above
[12] = tested on: E34; assay: as above
[13] = tested on: FT3469; assay: as above
[14] = tested on: E57; assay: as above
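Throughout, for phenotypic distance (Euclidean, principal components) from DMSO controls: cell Painting imaging in 384-well plates, CellProfiler features reduced to at least 20 principal components, Euclidean distance versus same-plate DMSO vehicle wells (0.1% v/v), median over six images per well.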
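Throughout, for surviving fraction (nuclei count normalised to DMSO): nuclei counted by high-content imaging of Hoechst-stained cells in laminin-coated 384-well plates, relative to 0.1% DMSO vehicle wells, with staurosporine as cell-death control.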

CCOC(=O)OC(C)OC(=O)[C@@H]1N2C(=O)[C@@H](NC(=O)[C@H](N)c3ccccc3)[C@H]2SC1(C)C (stereo partly drawn) [Bacampicillin hydrochloride]
Conditions	phenotypic distance	surviving fraction
[1], 4.1 nM	0.65	–
[1], 12.3 nM	1.12	–
[1], 37 nM	0.975	–
[1], 111.1 nM	0.635	–
[1], 333.3 nM	0.439	–
[1], 1000 nM	0.698	–
[1], 3000 nM	0.628	–
[2], 4.1 nM	0.814	–
[2], 12.3 nM	0.643	–
[2], 37 nM	1.05	–
[2], 111.1 nM	0.376	–
[2], 333.3 nM	0.776	–
[2], 1000 nM	0.7	–
[2], 3000 nM	0.853	–
[3], 4.1 nM	0.82	–
[3], 12.3 nM	0.789	–
[3], 37 nM	1.1	–
[3], 111.1 nM	0.421	–
[3], 333.3 nM	0.781	–
[3], 1000 nM	0.904	–
[3], 3000 nM	0.881	–
[4], 4.1 nM	0.89	–
[4], 12.3 nM	0.639	–
[4], 37 nM	0.836	–
[4], 111.1 nM	0.578	–
[4], 333.3 nM	0.932	–
[4], 1000 nM	0.697	–
[4], 3000 nM	0.565	–
[5], 4.1 nM	0.569	–
[5], 12.3 nM	0.614	–
[5], 37 nM	0.651	–
[5], 111.1 nM	0.507	–
[5], 333.3 nM	1.28	–
[5], 1000 nM	0.329	–
[5], 3000 nM	1.06	–
[6], 4.1 nM	0.697	–
[6], 12.3 nM	0.387	–
[6], 37 nM	0.735	–
[6], 111.1 nM	0.551	–
[6], 333.3 nM	0.433	–
[6], 1000 nM	0.827	–
[6], 3000 nM	0.96	–
[7], 4.1 nM	0.537	–
[7], 12.3 nM	1.07	–
[7], 37 nM	0.681	–
[7], 111.1 nM	0.754	–
[7], 333.3 nM	0.45	–
[7], 1000 nM	0.576	–
[7], 3000 nM	0.604	–
[8], 4.1 nM	–	0.878
[8], 12.3 nM	–	0.951
[8], 37 nM	–	1.03
[8], 111.1 nM	–	0.813
[8], 333.3 nM	–	1
[8], 1000 nM	–	1.04
[8], 3000 nM	–	1.11
[9], 4.1 nM	–	0.982
[9], 12.3 nM	–	1.01
[9], 37 nM	–	1.09
[9], 111.1 nM	–	1.01
[9], 333.3 nM	–	1
[9], 1000 nM	–	0.914
[9], 3000 nM	–	1.06
[10], 4.1 nM	–	0.882
[10], 12.3 nM	–	0.993
[10], 37 nM	–	1.09
[10], 111.1 nM	–	1.19
[10], 333.3 nM	–	0.997
[10], 1000 nM	–	1.15
[10], 3000 nM	–	1.06
[11], 4.1 nM	–	0.986
[11], 12.3 nM	–	0.807
[11], 37 nM	–	0.871
[11], 111.1 nM	–	0.941
[11], 333.3 nM	–	1
[11], 1000 nM	–	0.965
[11], 3000 nM	–	1.1
[12], 4.1 nM	–	0.918
[12], 12.3 nM	–	1.02
[12], 37 nM	–	0.858
[12], 111.1 nM	–	0.934
[12], 333.3 nM	–	1.25
[12], 1000 nM	–	1.05
[12], 3000 nM	–	1.07
[13], 4.1 nM	–	0.909
[13], 12.3 nM	–	0.875
[13], 37 nM	–	1.05
[13], 111.1 nM	–	0.978
[13], 333.3 nM	–	1.03
[13], 1000 nM	–	1.05
[13], 3000 nM	–	0.858
[14], 4.1 nM	–	0.987
[14], 12.3 nM	–	1.09
[14], 37 nM	–	0.961
[14], 111.1 nM	–	1.03
[14], 333.3 nM	–	0.926
[14], 1000 nM	–	0.97
[14], 3000 nM	–	0.956

Reference: the supplement of paper PMC13207355
